According to ChEMBL document CHEMBL4602645, “Design, synthesis and evaluation of diosgenin carbamate derivatives as multitarget anti-Alzheimer's disease agents” (2020):
Activity calls are given as the source filed them. No cut-off for these calls is given here.

What was measured:
[1] = test system: SH-SY5Y; assay: Neuroprotective activity against H2O2-induced cytotoxicity in human SH-SY5Y cells assessed as cell viability at 10 uM pretreated for 2 hrs followed by H2O2 challenge and measured after 24 hrs by MTT assay relative to control; assay type: functional; conditions: for viability at 10 µM: read-out: Activity
[2] = test system: RAW264.7; assay: Antiinflammatory activity in mouse RAW264.7 cells assessed as inhibition of LPS-induced nitric oxide production at 10 uM preincubated for 2 hrs followed by LPS stimulation and measured after 24 hrs by Griess assay relative to control; assay type: functional

Compound | viability at 10 µM [1] [%] | Activity [1] | inhibition at 10 µM [2] [%]
C[C@@H]1CC[C@@]2(OC1)O[C@H]1C[C@H]3[C@@H]4CC=C5C[C@@H](OC(=O)N6CCN(Cc7ccc(Cl)cc7)CC6)CC[C@]5(C)[C@H]4CC[C@]3(C)[C@H]1[C@@H]2C | 4.5 | – | –
C[C@@H]1CC[C@@]2(OC1)O[C@H]1C[C@H]3[C@@H]4CC=C5C[C@@H](OC(=O)NC(C)(C)C)CC[C@]5(C)[C@H]4CC[C@]3(C)[C@H]1[C@@H]2C | 7.7 | – | –
C[C@@H]1CC[C@@]2(OC1)O[C@H]1C[C@H]3[C@@H]4CC=C5C[C@@H](OC(=O)N6CCN(C)CC6)CC[C@]5(C)[C@H]4CC[C@]3(C)[C@H]1[C@@H]2C | 3.6 | – | –
COc1ccc(CN2CCN(C(=O)O[C@H]3CC[C@@]4(C)C(=CC[C@H]5[C@@H]6C[C@@H]7O[C@]8(CC[C@@H](C)CO8)[C@@H](C)[C@@H]7[C@@]6(C)CC[C@@H]54)C3)CC2)cc1 | – | inactive | –
CCN(C)C(=O)O[C@H]1CC[C@@]2(C)C(=CC[C@H]3[C@@H]4C[C@@H]5O[C@]6(CC[C@@H](C)CO6)[C@@H](C)[C@@H]5[C@@]4(C)CC[C@@H]32)C1 | 4.3 | – | –
C[C@@H]1CC[C@@]2(OC1)O[C@H]1C[C@H]3[C@@H]4CC=C5C[C@@H](OC(=O)N6CCCC6)CC[C@]5(C)[C@H]4CC[C@]3(C)[C@H]1[C@@H]2C | 63.2 | – | 16.5
C[C@@H]1CC[C@@]2(OC1)O[C@H]1C[C@H]3[C@@H]4CC=C5C[C@@H](OC(=O)NCc6cnccn6)CC[C@]5(C)[C@H]4CC[C@]3(C)[C@H]1[C@@H]2C | 22.3 | – | –
C[C@@H]1CC[C@@]2(OC1)O[C@H]1C[C@H]3[C@@H]4CC=C5C[C@@H](OC(=O)NCc6ccccc6Cl)CC[C@]5(C)[C@H]4CC[C@]3(C)[C@H]1[C@@H]2C | 8.9 | – | –
COc1ccccc1CNC(=O)O[C@H]1CC[C@@]2(C)C(=CC[C@H]3[C@@H]4C[C@@H]5O[C@]6(CC[C@@H](C)CO6)[C@@H](C)[C@@H]5[C@@]4(C)CC[C@@H]32)C1 | 11.3 | – | –
COc1cccc(CNC(=O)O[C@H]2CC[C@@]3(C)C(=CC[C@H]4[C@@H]5C[C@@H]6O[C@]7(CC[C@@H](C)CO7)[C@@H](C)[C@@H]6[C@@]5(C)CC[C@@H]43)C2)c1 | 38.8 | – | 9.8
CC(C)CNC(=O)O[C@H]1CC[C@@]2(C)C(=CC[C@H]3[C@@H]4C[C@@H]5O[C@]6(CC[C@@H](C)CO6)[C@@H](C)[C@@H]5[C@@]4(C)CC[C@@H]32)C1 | 25.3 | – | –
CCCCNC(=O)O[C@H]1CC[C@@]2(C)C(=CC[C@H]3[C@@H]4C[C@@H]5O[C@]6(CC[C@@H](C)CO6)[C@@H](C)[C@@H]5[C@@]4(C)CC[C@@H]32)C1 | 47.8 | – | 11
C[C@@H]1CC[C@@]2(OC1)O[C@H]1C[C@H]3[C@@H]4CC=C5C[C@@H](OC(=O)NCc6cccc(Cl)c6)CC[C@]5(C)[C@H]4CC[C@]3(C)[C@H]1[C@@H]2C | 13.7 | – | –
C[C@@H]1CC[C@@]2(OC1)O[C@H]1C[C@H]3[C@@H]4CC=C5C[C@@H](OC(=O)NCc6ccc(F)cc6)CC[C@]5(C)[C@H]4CC[C@]3(C)[C@H]1[C@@H]2C | 60.1 | – | 18.6
C[C@@H]1CC[C@@]2(OC1)O[C@H]1C[C@H]3[C@@H]4CC=C5C[C@@H](OC(=O)NCc6ccc(Cl)cc6)CC[C@]5(C)[C@H]4CC[C@]3(C)[C@H]1[C@@H]2C | 56.9 | – | 7
Cc1ccc(CNC(=O)O[C@H]2CC[C@@]3(C)C(=CC[C@H]4[C@@H]5C[C@@H]6O[C@]7(CC[C@@H](C)CO7)[C@@H](C)[C@@H]6[C@@]5(C)CC[C@@H]43)C2)cc1 | 26.3 | – | –
C[C@@H]1CC[C@@]2(OC1)O[C@H]1C[C@H]3[C@@H]4CC=C5C[C@@H](OC(=O)NCc6cccnc6)CC[C@]5(C)[C@H]4CC[C@]3(C)[C@H]1[C@@H]2C | 3.5 | – | –
C[C@@H]1CC[C@@]2(OC1)O[C@H]1C[C@H]3[C@@H]4CC=C5C[C@@H](OC(=O)N6CCN(Cc7ccc(F)cc7)CC6)CC[C@]5(C)[C@H]4CC[C@]3(C)[C@H]1[C@@H]2C | 5.4 | – | –
C[C@@H]1CC[C@@]2(OC1)O[C@H]1C[C@H]3[C@@H]4CC=C5C[C@@H](OC(=O)NC6CCCC6)CC[C@]5(C)[C@H]4CC[C@]3(C)[C@H]1[C@@H]2C | 3.3 | – | –
C[C@@H]1CC[C@@]2(OC1)O[C@H]1C[C@H]3[C@@H]4CC=C5C[C@@H](OC(=O)N(C)Cc6ccc(F)cc6)CC[C@]5(C)[C@H]4CC[C@]3(C)[C@H]1[C@@H]2C | 10.7 | – | –

Compound | viability at 10 µM [1] [%] | Activity [1] | inhibition at 10 µM [2] [%]
C[C@@H]1CC[C@@]2(OC1)O[C@H]1C[C@H]3[C@@H]4CC=C5C[C@@H](OC(=O)N6CCN(Cc7ccccc7)CC6)CC[C@]5(C)[C@H]4CC[C@]3(C)[C@H]1[C@@H]2C | 11.2 | – | –
C[C@@H]1CC[C@@]2(OC1)O[C@H]1C[C@H]3[C@@H]4CC=C5C[C@@H](O)CC[C@]5(C)[C@H]4CC[C@]3(C)[C@H]1[C@@H]2C [DISOGENIN] | 6.7 | – | –
CC(C)CN(C)C(=O)O[C@H]1CC[C@@]2(C)C(=CC[C@H]3[C@@H]4C[C@@H]5O[C@]6(CC[C@@H](C)CO6)[C@@H](C)[C@@H]5[C@@]4(C)CC[C@@H]32)C1 | 17.7 | – | –
COc1ccc(CNC(=O)O[C@H]2CC[C@@]3(C)C(=CC[C@H]4[C@@H]5C[C@@H]6O[C@]7(CC[C@@H](C)CO7)[C@@H](C)[C@@H]6[C@@]5(C)CC[C@@H]43)C2)cc1 | 53.5 | – | 18.6
Cc1ccc(CN(C)C(=O)O[C@H]2CC[C@@]3(C)C(=CC[C@H]4[C@@H]5C[C@@H]6O[C@]7(CC[C@@H](C)CO7)[C@@H](C)[C@@H]6[C@@]5(C)CC[C@@H]43)C2)cc1 | – | inactive | –
C[C@@H]1CC[C@@]2(OC1)O[C@H]1C[C@H]3[C@@H]4CC=C5C[C@@H](OC(=O)NC6CCCCC6)CC[C@]5(C)[C@H]4CC[C@]3(C)[C@H]1[C@@H]2C | 34.4 | – | 11.6
COc1cc(CN2CCN(C(=O)O[C@H]3CC[C@@]4(C)C(=CC[C@H]5[C@@H]6C[C@@H]7O[C@]8(CC[C@@H](C)CO8)[C@@H](C)[C@@H]7[C@@]6(C)CC[C@@H]54)C3)CC2)ccc1O | 23.1 | – | –
C[C@@H]1CC[C@@]2(OC1)O[C@H]1C[C@H]3[C@@H]4CC=C5C[C@@H](OC(=O)NCc6ccccc6F)CC[C@]5(C)[C@H]4CC[C@]3(C)[C@H]1[C@@H]2C | 21 | – | –
C[C@@H]1CC[C@@]2(OC1)O[C@H]1C[C@H]3[C@@H]4CC=C5C[C@@H](OC(=O)NCc6ccc(C(F)(F)F)cc6)CC[C@]5(C)[C@H]4CC[C@]3(C)[C@H]1[C@@H]2C | – | inactive | –
COc1ccc(CN(C)C(=O)O[C@H]2CC[C@@]3(C)C(=CC[C@H]4[C@@H]5C[C@@H]6O[C@]7(CC[C@@H](C)CO7)[C@@H](C)[C@@H]6[C@@]5(C)CC[C@@H]43)C2)cc1 | 19.4 | – | –
C[C@@H]1CC[C@@]2(OC1)O[C@H]1C[C@H]3[C@@H]4CC=C5C[C@@H](OC(=O)NCc6ccncc6)CC[C@]5(C)[C@H]4CC[C@]3(C)[C@H]1[C@@H]2C | 42.1 | – | 11.8
C[C@@H]1CC[C@@]2(OC1)O[C@H]1C[C@H]3[C@@H]4CC=C5C[C@@H](OC(=O)NC6CC6)CC[C@]5(C)[C@H]4CC[C@]3(C)[C@H]1[C@@H]2C | – | inactive | –
CCNC(=O)O[C@H]1CC[C@@]2(C)C(=CC[C@H]3[C@@H]4C[C@@H]5O[C@]6(CC[C@@H](C)CO6)[C@@H](C)[C@@H]5[C@@]4(C)CC[C@@H]32)C1 | 10.9 | – | –
Cc1cccc(CNC(=O)O[C@H]2CC[C@@]3(C)C(=CC[C@H]4[C@@H]5C[C@@H]6O[C@]7(CC[C@@H](C)CO7)[C@@H](C)[C@@H]6[C@@]5(C)CC[C@@H]43)C2)c1 | 14.2 | – | –
C[C@@H]1CC[C@@]2(OC1)O[C@H]1C[C@H]3[C@@H]4CC=C5C[C@@H](OC(=O)N(C)Cc6ccc(Cl)cc6)CC[C@]5(C)[C@H]4CC[C@]3(C)[C@H]1[C@@H]2C | 43.9 | – | 12.5
C[C@@H]1CC[C@@]2(OC1)O[C@H]1C[C@H]3[C@@H]4CC=C5C[C@@H](OC(=O)NCc6cccc(F)c6)CC[C@]5(C)[C@H]4CC[C@]3(C)[C@H]1[C@@H]2C | 27.4 | – | –
C[C@@H]1CC[C@@]2(OC1)O[C@H]1C[C@H]3[C@@H]4CC=C5C[C@@H](OC(=O)N(C)Cc6ccccc6)CC[C@]5(C)[C@H]4CC[C@]3(C)[C@H]1[C@@H]2C | 43.5 | – | 20.8
Cc1ccccc1CNC(=O)O[C@H]1CC[C@@]2(C)C(=CC[C@H]3[C@@H]4C[C@@H]5O[C@]6(CC[C@@H](C)CO6)[C@@H](C)[C@@H]5[C@@]4(C)CC[C@@H]32)C1 | 7.9 | – | –
C[C@@H]1CC[C@@]2(OC1)O[C@H]1C[C@H]3[C@@H]4CC=C5C[C@@H](OC(=O)N6CCCCC6)CC[C@]5(C)[C@H]4CC[C@]3(C)[C@H]1[C@@H]2C | 36.7 | – | 12
C[C@@H]1CC[C@@]2(OC1)O[C@H]1C[C@H]3[C@@H]4CC=C5C[C@@H](OC(=O)N6CCN(Cc7ccc(O)cc7)CC6)CC[C@]5(C)[C@H]4CC[C@]3(C)[C@H]1[C@@H]2C | 9.7 | – | –
